Laboratory results from paper PMC7418971 (PLoS Pathogens, 2020).

Key:
[1] = molecular target: Eng195 M2-N31 CD peptide (aa 18-60) (Influenza A virus, UniProt P06821, A27V/L43T); format: biochemical, Influenza A/England/195/2009 (H1N1)
[2] = molecular target: Eng195 M2-S31 CD peptide (aa 18-60) (Influenza A virus, UniProt P06821, A27V/L43T/N31S); format: biochemical, Influenza A/England/195/2009 (H1N1)
Eng195 in MDCK culture = format: cell-based, influenza A virus
[3] = system: E195 engineered to express M2-S31; format: cell-based, influenza A virus
[4] = molecular target: Eng195 M2-N31 TM peptide (aa 18-46) (Influenza A virus, UniProt P06821, A27V/L43T); format: biochemical, Influenza A/England/195/2009 (H1N1)
M2-N31 TM peptides = M2-N31 TM peptides (Influenza A virus, UniProt P06821, A27V/L43T); format: biochemical, Influenza A/England/195/2009 (H1N1)
[5] = molecular target: M2-N31 CD peptide channels (Influenza A virus, UniProt P06821, A27V/L43T); format: biochemical, Influenza A/England/195/2009 (H1N1)
M2-S31N (H3N2 Udorn) = conditions: read-out: IC50 in two-electrode voltage clamp assay; cited from earlier work

For CC(N)C12CC3CC(CC(C3)C1)C2 (racemic) [rimantadine, (RS)-1-(1-adamantyl)ethanamine, reference compound], the “effect on M2-N31 CD peptide channel activity” value [1] was “only blocked activity of Eng195 M2-S31 peptides”, the “effect on M2-S31 CD peptide channel activity” value [2] was “blocked activity” and the “inhibition of channel activity of M2-WT (S31)” value [2] was 50%. The “inhibitor concentration under which virus could be expanded from plaques” value (from here on “inhibitor concentration”) (Eng195 in MDCK culture) was 80 µM and the “time for cytopathic effects (CPE) to manifest on plaque expansion” value (from here on “time for cytopathic effects (CPE)”) (Eng195 in MDCK culture) was ≤ 24 h.

With CN1CCN(C(=O)c2ccc3ccccc3c2)CC1 [B] the “effect on M2-N31 CD peptide channel activity” value [1] was “not N31”, the “effect on M2-S31 CD peptide channel activity” value [2] was “activity versus M2-S31” and the “antiviral effect versus E195 with M2-S31 (N31S)” value (from here on “antiviral effect versus E195”) [3] was “neither B nor K exhibited antiviral effects”.

For Cc1c2ccccc2n2cc(-c3ccccc3)nc(C(C)C)c12 [DL7], the “% M2 activity (40 µM) N31 CD” value [1] was 19.5%, the “% M2 activity (40 µM) N31 TM” value [4] was 15.0% and the “% M2 activity (40 µM) S31 CD” value [2] was 31.3%.

In the case of Cc1ccc2nc(Oc3ccccc3)ccc2c1 [DP9], the “% M2 activity (40 µM) N31 CD” value [1] is reported as 65.8%, the “% M2 activity (40 µM) N31 TM” value [4] is reported as 100% and the “% M2 activity (40 µM) S31 CD” value [2] is reported as 97.4%.

In the case of c1cc2nc(C34CC5CC(CC(C5)C3)C4)[nH]c2cn1 [D], the “effect on M2-N31 CD peptide channel activity” value [1] is reported as “inhibited” and the “effect on M2-S31 CD peptide channel activity” value [2] is reported as “inhibited”.

For CCN1CCC(NC2C3CC4CC(C3)CC2C4)CC1 (stereo not shown) [E], the “effect on M2-N31 CD peptide channel activity” value [1] was “no activity” and the “effect on M2-S31 CD peptide channel activity” value [2] was “no activity”.

With OC(CN1CCCC1)C12CC3CC(CC(C3)C1)C2 (stereo not shown) [G] the “effect on M2-N31 CD peptide channel activity” value [1] was “no activity” and the “effect on M2-S31 CD peptide channel activity” value [2] was “no activity”.

In the case of Cc1ncc(C23CC4CC(CC(C4)C2)C3)[nH]1 [H], the “effect on M2-N31 CD peptide channel activity” value [1] is reported as “inhibited” and the “effect on M2-S31 CD peptide channel activity” value [2] is reported as “inhibited”.

With OCCNC12CC3CC(CC(C3)C1)C2 [J] the “effect on M2-N31 CD peptide channel activity” value [1] was “inhibited” and the “effect on M2-S31 CD peptide channel activity” value [2] was “inhibited”.

In the case of O=C(Nc1nnc[nH]1)c1cc2ccccc2o1 [K], the “effect on M2-N31 CD peptide channel activity” value [1] is reported as “not N31”, the “effect on M2-S31 CD peptide channel activity” value [2] is reported as “activity versus M2-S31” and the “antiviral effect versus E195” value [3] is reported as “neither B nor K exhibited antiviral effects”.

For COc1ccccc1NC(=S)NC(=O)c1cc2ccccc2cc1OC [L1.1], the “% M2 activity (40 µM) N31 CD” value [1] was 32.8%, the “% M2 activity (40 µM) N31 TM” value [4] was 22.0% and the “% M2 activity (40 µM) S31 CD” value [2] was 41.8%. For the same compound, the “antiviral effect versus E195” value [3] was “active”, the “inhibition of M2-N31 TM peptide channels in bilayer” value (M2-N31 TM peptides) was “inhibited TM peptides” and the “inhibitor concentration” value (Eng195 in MDCK culture) was ≤ 20 µM. For the same compound, the “time for cytopathic effects (CPE)” value (Eng195 in MDCK culture) was “at least 48 h”.

In the case of Nc1nc(-c2cc3c(cc2Cl)OCCO3)cs1 [L], the “effect on M2-N31 CD peptide channel activity” value [1] is reported as “inactive” and the “effect on M2-S31 CD peptide channel activity” value [2] is reported as “inactive”.

For c1csc(-c2cc(CNC34CC5CC(CC(C5)C3)C4)no2)c1 [M2WJ332, (3S,5S,7S)-N-{[5-(thiophen-2-yl)-1,2-oxazol-3-yl]methyl}tricycle[3.3.1.1~3,7~]decan-1-aminium, reference compound], the “% M2 activity (40 µM) N31 CD” value [1] was 58.4%, the “effect on M2-N31 CD peptide channel activity” value [1] was “blocked the activity” and the “inhibition of channel activity of the N31 CD peptide” value [1] was ~ 40%. For the same compound, the “% M2 activity (40 µM) N31 TM” value [4] was 100%, the “effect on M2-N31 TM peptide channel activity” value [4] was “no TM-specific activity” and the “% M2 activity (40 µM) S31 CD” value [2] was 85%. For the same compound, the “effect on CD peptide activity in bilayer” value [5] was “abrogate activity”, the “inhibition of M2-N31 CD peptide channels in bilayer” value [5] was “sensitive to nanomolar concentrations” and the “effect on TM peptide activity in bilayer” value (M2-N31 TM peptides) was “modest effect”. For the same compound, the “inhibition of M2-N31 TM peptide channels in bilayer” value (M2-N31 TM peptides) was “retained channel activity”, the “inhibitor concentration” value (Eng195 in MDCK culture) was 80 µM and the “plaques retained by selected supernatants” value (Eng195 in MDCK culture) was ~ 30 % of DMSO control. The “time for cytopathic effects (CPE)” value (Eng195 in MDCK culture) was ≤ 24 h and the IC50 (M2-S31N (H3N2 Udorn)) was 16 µM.

For CCCCCCCCCN1C[C@H](O)[C@@H](O)[C@H](O)[C@H]1CO [NNDNJ, reference compound], the “effect on M2-N31 CD peptide channel activity” value [1] was “blocked the activity” and the “effect on M2-S31 CD peptide channel activity” value [2] was “blocked the activity”.
